Assay [1] deals with T1, ENPP1 (Homo sapiens, UniProt P22413).
T1 sequence (P22413 1-925): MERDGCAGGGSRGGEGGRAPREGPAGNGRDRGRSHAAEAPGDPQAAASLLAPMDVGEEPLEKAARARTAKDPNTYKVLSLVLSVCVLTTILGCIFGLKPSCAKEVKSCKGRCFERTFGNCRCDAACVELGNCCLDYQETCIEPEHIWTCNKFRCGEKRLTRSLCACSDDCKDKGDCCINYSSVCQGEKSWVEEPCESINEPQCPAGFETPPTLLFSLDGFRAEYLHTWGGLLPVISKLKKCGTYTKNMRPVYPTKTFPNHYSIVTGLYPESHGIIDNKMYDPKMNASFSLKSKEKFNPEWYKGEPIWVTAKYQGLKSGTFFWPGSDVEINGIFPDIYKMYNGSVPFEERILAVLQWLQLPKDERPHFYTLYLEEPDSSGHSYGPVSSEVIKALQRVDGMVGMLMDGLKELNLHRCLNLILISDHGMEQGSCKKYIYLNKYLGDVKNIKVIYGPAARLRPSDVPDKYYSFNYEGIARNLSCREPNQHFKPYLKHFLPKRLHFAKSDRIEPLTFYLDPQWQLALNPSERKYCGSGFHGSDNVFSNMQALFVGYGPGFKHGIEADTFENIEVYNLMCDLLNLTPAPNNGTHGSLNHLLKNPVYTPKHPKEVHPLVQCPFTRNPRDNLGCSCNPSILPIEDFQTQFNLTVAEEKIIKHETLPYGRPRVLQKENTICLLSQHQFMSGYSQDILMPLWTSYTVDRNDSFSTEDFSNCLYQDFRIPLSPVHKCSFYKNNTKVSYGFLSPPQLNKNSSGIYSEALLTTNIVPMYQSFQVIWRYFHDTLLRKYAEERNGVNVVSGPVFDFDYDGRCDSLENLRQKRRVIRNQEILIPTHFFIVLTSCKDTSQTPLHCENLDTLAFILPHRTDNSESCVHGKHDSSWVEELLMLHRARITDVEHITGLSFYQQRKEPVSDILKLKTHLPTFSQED
Kind of assay: Measurement of pNP-TMP hydrolysis by ENPP1. Particulars: substrate pNP-TMP, (S) 500 μM, KM 232 μM; Ki from IC50 by Cheng-Prusoff. Type of assay: biochemical. The method, then:
p-Nitrophenyl thymidine 5′-monophosphate (pNP-TMP) is a synthesized substrate for ENPP1. The ENPP1 enzyme activity assay with pNP-TMP substrate was conducted as follows:
Incubation of ENPP1 with compounds was set at 25° C. for 10 min.
Absorbance at 405 nm was recorded immediately in kinetic mode by PerkinElmer 2300 Enspire multimode plate reader.
For each inhibitor, the specific ENPP1 activity was calculated using the following equation: ENPP1 activity (pmol/min/μg)=Adjusted Vmax (OD405 nm/min)×conversion factor (pmol/OD405 nm)/amount of enzyme (μg)
Adjusted Vmax=V0×(Km+(S))/(S). […] V0=(OD405 nm with ENPP1−OD405 nm ENPP1 blank)/minutes. OD405 nm was plotted, with blank subtracted, against time (minutes), the initial linear rate is V0. […]
The slope is the conversion factor. The percent ENPP1 activity for each sample was calculated using the following equation:
% enzyme activity=sample enzyme activity/MAX Activity×100%.
To determine the IC50 for each compound, compound concentration values and percent enzyme activity values were inserted into GraphPad Prism (GraphPad Prism version 7.0 for Windows, GraphPad Software, La Jolla Calif. USA, www.graphpad.com), and Prism's Transform analysis was used to convert the x-axis values (compound concentration) to logarithms. A sigmoidal variable slope nonlinear regression analysis was performed using the following equation: Y=Bottom+(Top−Bottom)/(1+10^((Log IC50^−X)*HillSlope)).

The target in assay [2] is T1, ENPP1. Put plainly: Measurement of 2′3′-cGAMP hydrolysis by ENPP1 (AMP-Glo).
Experimental: Then, 15 μl of the ENPP1/Compound incubation was transferred to the 200 μM 2′3′-cGAMP solution to initiate the reaction. The 30 μl mixture was incubated for 30 min at 25° C. […] After 30 min the reaction was stopped by heating at 90° C. for 3 min.
Third, now the Promega AMP-Glo kit was used to detect 5′-AMP production as a measurement of ENPP1 enzyme activity. To do this, 10 μl of the above mentioned 30 μl total reaction per sample was transferred into 384 well white solid assay plate for measurement of 5′-AMP production. For each well, 10 μl of AMP-Glo Reagent I was added, mixed well, and incubated for 1 hour at 25° C. At this time AMP detection solution was prepared and 20 μl was added per well, and the resulting solution was incubated for 1 hr at 25° C. Duplicates were run for each inhibitor concentration. Luminescence signal (relative luminescence units, RLU) was recorded using a PerkinElmer 2300 Enspire multimode plate reader.
IC50 values of compounds were determined by loading compound concentration data and percent inhibition values into GraphPad Prism (GraphPad Prism version 7.0 for Windows, GraphPad Software, La Jolla Calif. USA, www.graphpad.com) and conducted a Sigmoidal variable slope nonlinear regression fitting.
The test system of assay [3] is HGS tumor model. Kind of assay: Anti-tumor activity in HGS tumor model. The assay is classed as in vivo. The settings on record: animals treated with 20/kg of compound, day 42 after inoculation (vehicle 645).
Source text: […]

Structures can show the parent of a compound that is named as a salt. Bounds are passed on as bounds.

Data on 18 compounds can be found in patent US20220056052A1, “QUINAZOLINE DERIVATIVES AS ECTONUCLEOTIDE PYROPHOSPHATASE PHOSPHODIESTERASE 1 INHIBITORS” (Riboscience LLC, priority 2018, published 2022).

Broadly, the Ki is the equilibrium dissociation constant of an inhibitor or competing ligand from its target. Low readings indicate tighter binding, high ones weaker binding. In turn, `COc1cc2ncnc(NCc3c(F)cc(B(O)O)cc3F)c2cc1OC` [compound 24, 4-(((6,7-dimethoxyquinazolin-4-yl)amino)methyl)-3,5-difluorophenylboronic acid hydrochloride] came in with a Ki in assay [1] of less than 10 nM. In turn, `COc1cc2ncnc(Nc3ccc4c(c3)COB4O)c2cc1OC` [compound 10, 5-((6,7-dimethoxyquinazolin-4-yl)amino)-1,3-dihydro-2,1-benzoxaborol-1-ol] came in with a Ki in assay [2] of less than 10 nM.

In turn, `COc1ccc2c(NCc3ccc(P(=O)(O)O)cc3)ncnc2c1` [compound 41, 4-(((7-methoxyquinazolin-4-yl)amino)methyl)phenylphosphonic acid formic acid salt] yielded a Ki in assay [1] of less than 5 nM. As for `COc1cc2ncnc(OCc3ccc(B(O)O)cc3)c2cc1OC` [compound 19, (4-(((6,7-dimethoxyquinazolin-4-yl)oxy)methyl)phenyl)boronic acid], the Ki was less than 1 nM in assay [2] and less than 5 nM in assay [1].

In the case of `COc1cc2ncnc(N3CCC(CP(=O)(O)O)CC3)c2cc1OC` [Cpd. 4, ((1-(6,7-dimethoxyquinazolin-4-yl)piperidin-4-yl)methyl)phosphonic acid], in assay [2], the Ki is less than 5 nM. Same read-out and setting: next, `COc1cc2ncnc(N3CCC(CCCB(O)O)CC3)c2cc1OC` [Cpd. 3, (3-(1-(6,7-dimethoxyquinazolin-4-yl)piperidin-4-yl)propyl)boronic acid]: less than 1 nM. In turn, `COc1cc2ncnc(OCc3ccc4c(c3)B(O)OC4)c2cc1OC` [compound 20, 6-(((6,7-dimethoxyquinazolin-4-yl)oxy)methyl)-3H-2,1-benzoxaborol-1-ol] registered a Ki in assay [2] of less than 5 nM. The same measure, in the same setting: the value for `COc1cc2ncnc(NCC3CCN(S(N)(=O)=O)CC3)c2cc1OC` [compound 18, 4-(((6,7-dimethoxyquinazolin-4-yl)amino)methyl)piperidine-1-sulfonamide] was less than 5 nM. For `COc1ccc2c(NCc3ccc(B(O)O)cc3)ncnc2c1` [compound 30, 4-(((7-methoxyquinazolin-4-yl)amino)methyl)phenylboronic acid], in assay [1], the Ki was less than 5 nM. For `COc1cc2ncnc(N3CCC(CCCP(=O)(O)O)CC3)c2cc1OC` [compound 6, (3-(1-(6,7-dimethoxyquinazolin-4-yl)piperidin-4-yl)propyl)phosphonic acid], the Ki in assay [2] was less than 1 nM; in assay [1], less than 5 nM. Compound `COc1cc2ncnc(NCc3ccc(P(=O)(O)O)cc3)c2cc1OC` [compound 13, (4-(((6,7-dimethoxyquinazolin-4-yl)amino)methyl)phenyl)phosphonic acid] showed an inhibition constant Ki in assay [2] of less than 5 nM. `COc1cc2ncnc(NCc3ccc(B(O)O)cn3)c2cc1OC` [compound 8, (6-(((6,7-dimethoxyquinazolin-4-yl)amino)methyl)pyridin-3-yl)boronic acid]: in assay [2], the Ki was less than 10 nM.

The compound `C=CC(=O)N1CCN(CCCn2c(=O)c(-c3c(Cl)c(OC)cc(OC)c3Cl)cc3cnc(NC)nc32)CC1` [8-(3-(4-acryloylpiperazin-1-yl)propyl)-6-(2,6-dichloro-3,5-dimethoxyphenyl)-2-(methylamino)pyrido(2,3-d)pyrimidin-7(8H)-one] returned a tumor size in assay [3] of 55 mm3. For `COc1cc2ncnc(NCc3cccc(B(O)O)c3)c2cc1OC` [compound 12, (3-(((6,7-dimethoxyquinazolin-4-yl)amino)methyl)phenyl)boronic acid], the Ki was less than 1 nM in assay [2] and less than 10 nM in assay [1]. For `COc1cc2ncnc(NCc3ccc(B(O)O)cc3)c2cc1OC` [Cpd. 7, (4-(((6,7-dimethoxyquinazolin-4-yl)amino)methyl)phenyl)boronic acid formic acid salt], in that order: less than 1 nM and less than 10 nM. For the compound `COc1cc2ncnc(OCc3ccc4c(c3)COB4O)c2cc1OC` [compound 21, 5-(((6,7-dimethoxyquinazolin-4-yl)oxy)methyl)-3H-2,1-benzoxaborol-1-lol], the Ki in assay [2] is less than 10 nM. Regarding `COc1cc2ncnc(NCc3ccc(B(O)O)cc3F)c2cc1OC` [compound 11, 4-(((6,7-dimethoxyquinazolin-4-yl)amino)methyl)-3-fluorophenylboronic acid formic acid salt], in assay [1], the Ki was less than 10 nM. In assay [1], `COc1cc2ncnc(-c3ccc(COS(N)(=O)=O)cc3)c2cc1OC` [Cpd. 17, 4-(6,7-dimethoxyquinazolin-4-yl)benzyl sulfamate] registered a Ki of less than 1 nM.
